Laboratory results reported in patent US7541020B2, “Aminoalkyl glucosaminide phosphate compounds and their use as adjuvants and immunoeffectors” (priority 1997, dated 2009).
Values joined by “and” are separate entries in the source; they are usually repeats but may differ in a detail not shown here. Equal values may be shown once. Read-outs that look alike come from different tables or passages of the source.

Tests used:
E.G7 (OVA) cells = details: s.c. 25 μg OVA in AGP preparation, spleen cells 21 days later
ovalbumin = assay: Stimulation of antiovalbumin antibody production; type: in vivo, BDF1 female mice; details: 50 μg AGP + 50 μg ovalbumin; second immunization day 21; bled 14 days after second injection
Protocol: BDF1 female mice (8 per group) were immunized with 0.2 ml of emulsions containing 50 μg of the AGPs +50 μg of ovalbumin. A second immunization was administered 21 days post primary. Each mouse was bled 14 days after the second injection.

[1] = Fever response in rabbits (pyrogenicity); type: in vivo; details: for PYROGENICITY Total Rise ° C., 3 rabbits: 10 ug/kg, cumulative rise ≥1.5 degree in three rabbits is considered pyrogenic; for PY[…]: rabbits
Protocol: The AGP compounds were also evaluated for their tendency to induce a fever response in rabbits. Each compound was formulated in 10% (v/v) ethanol/water solution at 100 mg/ml, then diluted with D5W to the desired concentration. The material was injected at 3 ml/kg body weight into 3 rabbits. The rise in core temperature of the rabbits was recorded.

influenza A/HK/68 = type: in vivo, ICR mice; details: mouse, in vivo
IL-1β = assay: Cytokine induction in human whole blood ex vivo culture: IL-1β (ELISA); type: cell-based; details: 4 hr
Protocol: (§1) AGP compounds were solubilized in 10% EtOH-water and diluted to various concentrations. Fifty μl of each dilution were added to 450 μl of whole human blood. Controls were treated with culture media (RPMI). The reaction mixture was incubated at 37° C. for 4 hr with constant mixing on a rotator. Sterile PBS (1.5 ml) was added to the reaction mixture, the cells were centrifuged and the supernatents removed for cytokine testing. The concentration of TNF-α and IL-1β in each supernatent was determined using immunoassay ELISA kits from R&D Systems.

TNF-α = assay: Cytokine induction in human whole blood ex vivo culture: TNF-α (ELISA); type: cell-based; details: 4 hr
Protocol: as §1

tetanus toxoid = details: mouse, in vivo, sc

3-Hydroxy-(R)-2-[(R)-3-tetradecanoyloxytetradecanoylamino]propyl 2-Deoxy-4-O-phosphono-2-[(R)-3-tetradecanoyloxytetradecanoylamino]-3-O-[(R)-3-tetradecanoyloxytetradecanoyl]-β-D-glucopyranoside Triethylammonium Salt [B2]
% Cytotoxicity (E.G7 (OVA) cells; E:T 12.5:1): 6% | % Cytotoxicity (E.G7 (OVA) cells; E:T 25:1): 12% | % Cytotoxicity (E.G7 (OVA) cells; E:T 50:1): 21% | Anti-ovalbumin IgG1 T/C (ovalbumin): 5.0 | Anti-ovalbumin IgG1 Titer (ovalbumin): 8300 | Anti-ovalbumin IgG2a T/C (ovalbumin): 2.5 | Anti-ovalbumin IgG2a Titer (ovalbumin): 825 | Anti-ovalbumin IgG2b T/C (ovalbumin): 2.3 | Anti-ovalbumin IgG2b Titer (ovalbumin): 550 | Anti-ovalbumin IgM T/C (ovalbumin): 0.9 | Anti-ovalbumin IgM Titer (ovalbumin): 175 | Anti-ovalbumin Total Ig T/C (ovalbumin): 2.5 | Anti-ovalbumin Total Ig Titer (ovalbumin): 563 | PYROGENICITY Total Rise ° C., 3 rabbits [1]: 3.6 °C | PY[…] [1]: 2.5 to 5 µg/kg

3-Hydroxy-(S)-2-[(R)-3-tetradecanoyloxytetradecanoylamino]propyl 2-Deoxy-4-O-phosphono-2-[(R)-3-tetradecanoyloxytetradecanoylamino]-3-O-[(R)-3-tetradecanoyloxytetradecanoyl]-β-D-glucopyranoside Triethylammonium Salt [B1]
% Cytotoxicity (E.G7 (OVA) cells; E:T 12.5:1): 15% | % Cytotoxicity (E.G7 (OVA) cells; E:T 25:1): 24% | % Cytotoxicity (E.G7 (OVA) cells; E:T 50:1): 34% | Percent Survival (influenza A/HK/68): 40% | Titer−1 IgG1 (influenza A/HK/68): 6400 | Titer−1 IgG2a (influenza A/HK/68): 1600 | Titer−1 IgG2b (influenza A/HK/68): 15600 | Titer−1 Total IgG (influenza A/HK/68): 12,800 | Anti-ovalbumin IgG1 T/C (ovalbumin): 0.5 | Anti-ovalbumin IgG1 Titer (ovalbumin): 763 | Anti-ovalbumin IgG2a T/C (ovalbumin): 0.2 | Anti-ovalbumin IgG2a Titer (ovalbumin): 56 | Anti-ovalbumin IgG2b T/C (ovalbumin): 0.8 | Anti-ovalbumin IgG2b Titer (ovalbumin): 188 | Anti-ovalbumin IgM T/C (ovalbumin): 0.8 | Anti-ovalbumin IgM Titer (ovalbumin): 150 | Anti-ovalbumin Total Ig T/C (ovalbumin): 0.5 | Anti-ovalbumin Total Ig Titer (ovalbumin): 119 | PYROGENICITY Total Rise ° C., 3 rabbits [1]: 0.1 °C

CCCCCCCCCCCCCC(=O)OC(CCCCCCCCCCC)CC(=O)NC(COC1OC(CO)C(OP(=O)(O)O)C(OC(=O)CC(CCCCCCCCCCC)OC(=O)CCCCCCCCCCCCC)C1NC(=O)CC(CCCCCCCCCCC)OC(=O)CCCCCCCCCCCCC)C(N)=O.CCN(CC)CC [B24, N-[(R)-3-Tetradecanoyloxytetradecanoyl]-O-phosphono-2-[(R)-3-tetradecanoyloxytetradecanoylamino]-3-O-[(R)-3-tetradecanoyloxytetradecanoyl]β-D-glucopyranosyl]-L-serinamide Triethylammonium Salt]
PYROGENICITY Total Rise ° C., 3 rabbits [1]: 2.4 °C | PY[…] [1]: 2.5 to 5 µg/kg

CCCCCCCCCCCCCC(=O)O[C@H](CCCCCCCCCCC)CC(=O)N[C@H]1[C@H](OC[C@H](NC(=O)C[C@@H](CCCCCCCCCCC)OC(=O)CCCCCCCCCCCCC)C(=O)OC)O[C@H](CO)[C@@H](OP(=O)(O)O)[C@@H]1OC(=O)C[C@@H](CCCCCCCCCCC)OC(=O)CCCCCCCCCCCCC.CCN(CC)CC [B26, N-[(R)-3-Tetradecanoyloxytetradecanoyl]-O-[2-deoxy-4-O-phosphono-2-[(R)-3-tetradecanoyloxytetradecanoylamino]-3-O-[(R)-3-tetradecanoyloxytetradecanoyl]-β-D-glucopyranosyl]-1-serine Methyl Ester Triethylammoniun Salt]
% Cytotoxicity (E.G7 (OVA) cells; E:T 12.5:1): 4% | % Cytotoxicity (E.G7 (OVA) cells; E:T 25:1): 8% | % Cytotoxicity (E.G7 (OVA) cells; E:T 50:1): 14% | IL-1β (IL-1β; Dosage 1 μg, 37° C., Table 14): 3.90 pg/mL | IL-1β (IL-1β; Dosage 5 μg, 37° C., Table 14): 9.89 pg/mL | IL-1β (IL-1β; Dosage 10 μg, 37° C., Table 14): 25.34 pg/mL | IL-1β (IL-1β; Dosage 20 μg, 37° C., Table 14): 33.25 pg/mL | TNF-α (TNF-α; Dosage 1 μg, 37° C., Table 14): 38.85 pg/mL | TNF-α (TNF-α; Dosage 5 μg, 37° C., Table 14): 75.62 pg/mL | TNF-α (TNF-α; Dosage 10 μg, 37° C., Table 14): 254.94 pg/mL | TNF-α (TNF-α; Dosage 20 μg, 37° C., Table 14): 498.90 pg/mL | Anti-tetanus toxoid IgG1 T/C (tetanus toxoid): 16.9 | Anti-tetanus toxoid IgG1 Titer (tetanus toxoid): 25,200 | Anti-tetanus toxoid IgG2a T/C (tetanus toxoid): 29.3 | Anti-tetanus toxoid IgG2a Titer (tetanus toxoid): 440 | Anti-tetanus toxoid IgG2b T/C (tetanus toxoid): 42.6 | Anti-tetanus toxoid IgG2b Titer (tetanus toxoid): 2,260 | Anti-tetanus toxoid IgM T/C (tetanus toxoid): 1.1 | Anti-tetanus toxoid IgM Titer (tetanus toxoid): 600 | Anti-tetanus toxoid Total Ig T/C (tetanus toxoid): 10.5 | Anti-tetanus toxoid Total Ig Titer (tetanus toxoid): 2,490 | PYROGENICITY Total Rise ° C., 3 rabbits [1]: 1.7 °C | PY[…] [1]: 5 µg/kg

N-[(R)-3-Hexanoyloxytetradecanoyl]-O-[2-deoxy-4-O-phosphono-2-[(R)-3-hexanoyloxytetradecanoylamino]-3-O-[(R)-3-hexanoyloxytetradecanoyl]-α-d-glucopyranosyl]-l-serinamide Triethylammonium Salt [B29]
% Cytotoxicity (E.G7 (OVA) cells; E:T 12.5:1): 5% | % Cytotoxicity (E.G7 (OVA) cells; E:T 25:1): 9% | % Cytotoxicity (E.G7 (OVA) cells; E:T 50:1): 16% | PYROGENICITY Total Rise ° C., 3 rabbits [1]: 0.7 °C

N-[(R)-3-Octanoyloxytetradecanoyl]-O-[2-deoxy-4-O-phosphono-2-[(R)-3-octanoyloxytetradecanoylamino]-3-O-[(R)-3-octanoyloxytetradecanoyl]-β-D-glucopyranosyl]-L-serine Triethylammonium Salt [B17]
% Cytotoxicity (E.G7 (OVA) cells; E:T 12.5:1): 15% | % Cytotoxicity (E.G7 (OVA) cells; E:T 25:1): 26% | % Cytotoxicity (E.G7 (OVA) cells; E:T 50:1): 39% | IL-1β (IL-1β; Dosage 1000 ng/ml, Table 19): 0.2 pg/mL | IL-1β (IL-1β; Dosage 5000 ng/ml, Table 19): 0 pg/mL | IL-1β (IL-1β; Dosage 10,000 ng/ml, Table 19): 0 pg/mL | TNF-α (TNF-α; Dosage 1000 ng/ml, Table 19): 2.6 pg/mL | TNF-α (TNF-α; Dosage 5000 ng/ml, Table 19): 2.2 pg/mL | TNF-α (TNF-α; Dosage 10,000 ng/ml, Table 19): 2.8 pg/mL | Percent Survival (influenza A/HK/68): 40% | Titer^−1 IgG1 (influenza A/HK/68): 3200 | Titer^−1 IgG2a (influenza A/HK/68): 3200 | Titer^−1 IgG2b (influenza A/HK/68): 1600 | Titer^−1 Total IgG (influenza A/HK/68): 6400 | PYROGENICITY Total Rise ° C., 3 rabbits [1]: 3.4 °C

N-[(R)-3-Tetradecanoyloxytetradecanoyl]-O-[2-Deoxy-4-O-phosphono-2-[(R)-3-tetradecanoyloxytetradecanoylamino]-3-O-[(R)-3-tetradecanoyloxytetradecanoyl]-β-D-glucopyranosyl]-L-serine Triethylammonium Salt [B11]
% Cytotoxicity (E.G7 (OVA) cells; E:T 12.5:1): 5% | % Cytotoxicity (E.G7 (OVA) cells; E:T 25:1): 8% | % Cytotoxicity (E.G7 (OVA) cells; E:T 50:1): 14% | IL-1β (IL-1β; Dosage 100 ng/ml, Table 17): 59.8 pg/mL | IL-1β (IL-1β; Dosage 500 ng/ml, Table 17): 55.8 pg/mL | IL-1β (IL-1β; Dosage 1000 ng/ml, Table 17): 54.5 pg/mL | IL-1β (IL-1β; Dosage 5000 ng/ml, Table 17): 61.7 pg/mL | IL-1β (IL-1β; Dosage 10,000 ng/ml, Table 17): 62.3 pg/mL | TNF-α (TNF-α; Dosage 100 ng/ml, Table 17): 127 pg/mL | TNF-α (TNF-α; Dosage 500 ng/ml, Table 17): 125 pg/mL | TNF-α (TNF-α; Dosage 1000 ng/ml, Table 17): 115 pg/mL | TNF-α (TNF-α; Dosage 5000 ng/ml, Table 17): 139 pg/mL | TNF-α (TNF-α; Dosage 10,000 ng/ml, Table 17): 181 pg/mL | Percent Survival (influenza A/HK/68): 30% | Titer^−1 IgG1 (influenza A/HK/68): 200 | Titer^−1 IgG2a (influenza A/HK/68): 1600 | Titer^−1 IgG2b (influenza A/HK/68): 400 | Titer^−1 Total IgG (influenza A/HK/68): 1600 | Anti-ovalbumin IgG1 T/C (ovalbumin): 1.6 | Anti-ovalbumin IgG1 Titer (ovalbumin): 2650 | Anti-ovalbumin IgG2a T/C (ovalbumin): 1.7 | Anti-ovalbumin IgG2a Titer (ovalbumin): 550 | Anti-ovalbumin IgG2b T/C (ovalbumin): 1.6 | Anti-ovalbumin IgG2b Titer (ovalbumin): 375 | Anti-ovalbumin IgM T/C (ovalbumin): 1.3 | Anti-ovalbumin IgM Titer (ovalbumin): 250 | Anti-ovalbumin Total Ig T/C (ovalbumin): 0.7 | Anti-ovalbumin Total Ig Titer (ovalbumin): 150 | Anti-tetanus toxoid IgG1 T/C (tetanus toxoid): 1.86 | Anti-tetanus toxoid IgG1 Titer (tetanus toxoid): 400,000 | Anti-tetanus toxoid IgG2a Titer (tetanus toxoid): 10,450 | Anti-tetanus toxoid IgG2a titer (tetanus toxoid): 5900 | Anti-tetanus toxoid IgG2b Titer (tetanus toxoid): 26,800 | Anti-tetanus toxoid IgG2b titer (tetanus toxoid): 8400 | Anti-tetanus toxoid IgM T/C (tetanus toxoid): 4.75 and 3.3 | Anti-tetanus toxoid IgM Titer (tetanus toxoid): 7,600 | Anti-tetanus toxoid IgM titer (tetanus toxoid): 5120 | Anti-tetanus toxoid Total IgG T/C (tetanus toxoid): 3.6 | Anti-tetanus toxoid Total IgG Titer (tetanus toxoid): 23,200 | PY[…] [1]: 0.3 to 0.6 µg/kg
